Test results taken from ChEMBL document CHEMBL1146675, “Kringle 5 peptide-albumin conjugates with anti-migratory activity” (Bioorg Med Chem Lett, 2004).
Peptide text beside a SMILES is read from it. * marks the point of attachment. Propanoyl(3-maleimido) = O=C1C=CC(=O)N1CCC(=O)*

Species on record: Homo sapiens
Test: Percent of unbound maleimide to human serum albumin
Assay type: functional

Structure (SMILES)	Activity [%]
CC(=O)N[C@@H](CCCN=C(N)N)C(=O)N[C@@H](CC(N)=O)C(=O)N1CCC[C@H]1C(=O)N[C@@H](CC(=O)O)C(=O)NCC(=O)N[C@@H](CC(=O)O)C(=O)N[C@H](C(=O)NCC(=O)NCC(=O)N1CCC[C@H]1C(=O)N[C@@H](Cc1c[nH]c2ccccc12)C(=O)N[C@@H](C)C(=O)N[C@@H](Cc1ccc(O)cc1)C(=O)N[C@H](C(=O)N[C@H](C(=O)N[C@@H](CC(N)=O)C(=O)N1CCC[C@H]1C(=O)N[C@@H](CCCN=C(N)N)C(=O)N[C@@H](CCCCN)C(=O)N[C@@H](CC(C)C)C(=O)N[C@@H](Cc1ccc(O)cc1)C(=O)N[C@@H](CC(=O)O)C(=O)N[C@@H](Cc1ccc(O)cc1)C(=O)N[C@@H](CCCCNC(=O)CCN1C(=O)C=CC1=O)C(N)=O)[C@@H](C)O)[C@@H](C)O)C(C)C (Ac-RNPDGDVGGPWAYTTNPRKLYDYK(Propanoyl(3-maleimido))-NH2)	0.22
CC(C)C[C@H](NC(=O)[C@H](CCCCN)NC(=O)[C@H](CCCN=C(N)N)NC(=O)[C@@H]1CCCN1C(=O)CCN1C(=O)C=CC1=O)C(=O)N[C@@H](Cc1ccc(O)cc1)C(=O)N[C@@H](CC(=O)O)C(=O)N[C@@H](Cc1ccc(O)cc1)C(N)=O ({Propanoyl(3-maleimido)}-PRKLYDY-NH2)	1.1
CC(C)C[C@H](NC(=O)[C@H](CCCCN)NC(=O)[C@H](CCCN=C(N)N)NC(=O)[C@@H]1CCCN1C(=O)[C@H](CC(N)=O)NC(=O)[C@@H](NC(=O)[C@@H](NC(=O)[C@H](Cc1ccc(O)cc1)NC(=O)[C@H](C)NC(=O)[C@H](Cc1c[nH]c2ccccc12)NC(=O)[C@@H]1CCCN1C(=O)CNC(=O)CNC(=O)[C@@H](NC(=O)[C@H](CC(=O)O)NC(=O)CNC(=O)[C@H](CC(=O)O)NC(=O)[C@@H]1CCCN1C(=O)[C@H](CC(N)=O)NC(=O)[C@H](CCCN=C(N)N)NC(=O)CCN1C(=O)C=CC1=O)C(C)C)[C@@H](C)O)[C@@H](C)O)C(=O)N[C@@H](Cc1ccc(O)cc1)C(=O)N[C@@H](CC(=O)O)C(=O)N[C@@H](Cc1ccc(O)cc1)C(N)=O ({Propanoyl(3-maleimido)}-RNPDGDVGGPWAYTTNPRKLYDY-NH2)	1.6
